Measured values from article PMC4009756, “In Vitro High Throughput Screening, What Next? Lessons from the Screening for Aurora Kinase Inhibitors” (Biology, 2014).
Each block holds one compound with its values, some of them ahead of it.

Tests used:
Format in all cases: biochemical
[1] = molecular target: T1, TrkA "Tropomyosin Related kinase A" (Homo sapiens, UniProt P04629); assay: in vitro kinase profiling (MRC Dundee), […], duplicate
T1 construct: gene NTRK1; recombinant kinase (NM_001007792.1)
T1 sequence (P04629 33-796): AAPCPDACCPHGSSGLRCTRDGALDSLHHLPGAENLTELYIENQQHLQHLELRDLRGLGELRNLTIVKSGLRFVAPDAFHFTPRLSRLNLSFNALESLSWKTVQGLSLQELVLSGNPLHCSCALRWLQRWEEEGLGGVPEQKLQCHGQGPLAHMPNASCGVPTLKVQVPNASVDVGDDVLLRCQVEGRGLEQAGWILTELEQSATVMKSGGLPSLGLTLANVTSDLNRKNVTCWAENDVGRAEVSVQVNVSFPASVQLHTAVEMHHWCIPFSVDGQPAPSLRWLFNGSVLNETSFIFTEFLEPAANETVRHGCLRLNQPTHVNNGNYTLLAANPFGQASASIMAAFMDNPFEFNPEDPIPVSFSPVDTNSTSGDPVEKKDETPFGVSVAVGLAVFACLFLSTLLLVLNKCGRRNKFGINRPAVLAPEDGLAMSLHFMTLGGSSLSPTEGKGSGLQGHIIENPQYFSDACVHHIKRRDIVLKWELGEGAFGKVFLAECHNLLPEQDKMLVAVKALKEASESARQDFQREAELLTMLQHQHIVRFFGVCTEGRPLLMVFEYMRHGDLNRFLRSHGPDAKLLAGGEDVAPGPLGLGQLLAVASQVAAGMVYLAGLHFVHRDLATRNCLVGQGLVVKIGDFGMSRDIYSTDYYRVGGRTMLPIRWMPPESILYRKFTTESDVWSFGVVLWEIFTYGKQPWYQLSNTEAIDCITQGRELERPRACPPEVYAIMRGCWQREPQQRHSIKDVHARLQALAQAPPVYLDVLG

[2] = molecular target: T2, GCK "Germinal central kinase" (Homo sapiens, UniProt Q12851); assay: as above
T2 construct: gene MAP4K2; recombinant kinase (BC047865)
T2 sequence (Q12851 1-820): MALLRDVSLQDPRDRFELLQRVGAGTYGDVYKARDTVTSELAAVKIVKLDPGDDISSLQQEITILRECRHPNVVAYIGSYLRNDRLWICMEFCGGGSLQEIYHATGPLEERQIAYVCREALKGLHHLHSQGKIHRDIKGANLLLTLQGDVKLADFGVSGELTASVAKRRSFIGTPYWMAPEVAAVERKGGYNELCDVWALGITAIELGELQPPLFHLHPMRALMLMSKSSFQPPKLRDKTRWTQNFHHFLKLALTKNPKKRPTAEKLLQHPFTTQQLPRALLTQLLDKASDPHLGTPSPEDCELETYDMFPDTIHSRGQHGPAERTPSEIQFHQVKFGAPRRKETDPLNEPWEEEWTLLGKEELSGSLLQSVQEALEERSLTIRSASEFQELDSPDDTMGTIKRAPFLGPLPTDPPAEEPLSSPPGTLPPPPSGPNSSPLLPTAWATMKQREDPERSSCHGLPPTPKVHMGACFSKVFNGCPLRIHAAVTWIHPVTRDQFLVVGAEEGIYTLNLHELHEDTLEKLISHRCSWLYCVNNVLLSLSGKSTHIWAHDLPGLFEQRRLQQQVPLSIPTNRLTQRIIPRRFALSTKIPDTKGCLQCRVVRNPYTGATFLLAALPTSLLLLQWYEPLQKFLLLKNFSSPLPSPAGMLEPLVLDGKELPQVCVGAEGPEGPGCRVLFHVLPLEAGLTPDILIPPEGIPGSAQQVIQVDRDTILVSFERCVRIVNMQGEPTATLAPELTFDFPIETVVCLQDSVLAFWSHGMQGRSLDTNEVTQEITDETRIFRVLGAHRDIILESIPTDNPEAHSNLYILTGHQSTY

[3] = molecular target: T3, Tak1 "Transforming growth factor beta activated kinase" (Homo sapiens, UniProt O43318); assay: as above
T3 construct: gene MAP3K7; recombinant kinase (NM_003188)
T3 sequence (O43318 1-606): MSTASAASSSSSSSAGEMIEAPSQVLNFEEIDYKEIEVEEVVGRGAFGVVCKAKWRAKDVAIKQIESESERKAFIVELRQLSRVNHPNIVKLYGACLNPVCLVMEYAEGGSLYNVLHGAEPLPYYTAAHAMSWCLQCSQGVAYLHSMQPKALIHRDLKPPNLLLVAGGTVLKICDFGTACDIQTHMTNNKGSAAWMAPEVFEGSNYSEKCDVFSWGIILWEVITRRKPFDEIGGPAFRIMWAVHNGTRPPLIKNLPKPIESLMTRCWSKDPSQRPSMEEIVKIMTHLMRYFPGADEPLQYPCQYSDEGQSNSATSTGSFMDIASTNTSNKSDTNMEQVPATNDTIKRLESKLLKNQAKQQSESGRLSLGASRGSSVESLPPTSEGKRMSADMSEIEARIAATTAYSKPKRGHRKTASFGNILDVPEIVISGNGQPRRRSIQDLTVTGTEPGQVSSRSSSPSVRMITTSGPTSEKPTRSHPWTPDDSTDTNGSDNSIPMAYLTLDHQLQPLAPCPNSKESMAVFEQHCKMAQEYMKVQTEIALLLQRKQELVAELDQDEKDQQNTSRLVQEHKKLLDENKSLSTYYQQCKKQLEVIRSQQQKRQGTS

[4] = molecular target: T4, NUAK1-ARK5 "SnF1-like Kinase" (Homo sapiens, UniProt O60285); assay: as above
T4 construct: recombinant kinase (NM_014840)
T4 sequence (O60285 1-661): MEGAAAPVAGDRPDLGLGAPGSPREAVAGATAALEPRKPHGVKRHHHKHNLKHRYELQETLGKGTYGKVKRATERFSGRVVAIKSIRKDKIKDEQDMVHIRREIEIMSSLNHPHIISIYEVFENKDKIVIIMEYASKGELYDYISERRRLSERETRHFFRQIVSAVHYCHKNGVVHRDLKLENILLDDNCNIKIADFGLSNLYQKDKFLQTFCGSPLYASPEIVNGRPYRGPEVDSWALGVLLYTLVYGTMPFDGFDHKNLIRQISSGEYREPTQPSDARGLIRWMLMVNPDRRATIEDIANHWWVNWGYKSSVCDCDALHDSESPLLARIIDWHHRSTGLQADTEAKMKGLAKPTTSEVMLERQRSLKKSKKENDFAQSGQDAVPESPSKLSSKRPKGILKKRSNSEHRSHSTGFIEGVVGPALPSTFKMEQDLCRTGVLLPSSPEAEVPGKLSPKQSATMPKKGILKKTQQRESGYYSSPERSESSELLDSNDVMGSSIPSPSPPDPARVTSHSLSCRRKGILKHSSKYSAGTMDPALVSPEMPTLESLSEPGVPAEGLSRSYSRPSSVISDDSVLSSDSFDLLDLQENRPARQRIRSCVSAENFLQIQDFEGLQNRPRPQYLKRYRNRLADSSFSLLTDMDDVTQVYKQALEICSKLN

aurora kinase A = molecular target: T5, aurora kinase A (Homo sapiens, UniProt O14965); assay: in vitro histone H3 phosphorylation by recombinant kinase domain; conditions: read-out: % inhibition at 1.5 μM
T5 construct: gene AURKA; recombinant kinase domain
T5 sequence (O14965 133-383 limits assumed): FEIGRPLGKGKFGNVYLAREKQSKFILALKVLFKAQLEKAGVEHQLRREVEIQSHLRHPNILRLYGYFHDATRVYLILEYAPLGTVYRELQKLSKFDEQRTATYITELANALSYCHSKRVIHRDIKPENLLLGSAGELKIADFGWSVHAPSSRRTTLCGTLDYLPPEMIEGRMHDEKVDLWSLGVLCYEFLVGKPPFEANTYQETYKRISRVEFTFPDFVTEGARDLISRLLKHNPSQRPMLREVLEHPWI

Structure (SMILES): Cc1cncc2c1[nH]c1ccc3cc(OCCN(C)C)ccc3c12 [C2]
remaining activity at 1 µM [1]: 36 ± 2% | remaining activity at 1 µM [2]: 32 ± 1% | remaining activity at 1 µM [3]: 55 ± 3% | remaining activity at 1 µM [4]: 53 ± 2%

Structure (SMILES): O=c1cc(-c2ccc(O)c(O)c2)oc2cc(O)cc(O)c12 [luteonin]
inhibition at 1.5 µM (aurora kinase A): 50%

inhibition at 1.5 µM (aurora kinase A): 33%
Structure (SMILES): O=c1cc(-c2ccc(O)cc2)oc2cc(O)cc(O)c12 [apigenin]
